Data as given in PMC4237671 (Anesthesiology, 2014).
“Also recorded” adds a separate entry of the source. Where two headings read alike, the source gives them in different places.

Experiments:
[1] = Pharmacokinetics after single IV bolus; settings: for Co: back-extrapolated; for Plasma concentration range during anesthetic recovery: after IV bolus, approximate
[2] = Pharmacokinetics after single bolus followed by 2-h infusion
[3] = system: dogs; assay: Observation of myoclonus during and after hypnotic infusion; settings: for Persistence of myoclonus in the postinfusion period: after 2-h infusions; for Incidence of myoclonus during infusion: for all studies
[4] = system: dogs; assay: Pharmacodynamic modeling: plasma concentration vs anesthesia score; assay type: in vivo, beagle dog; settings: bolus, n = 3 dogs; for γ (slope parameter): sigmoid Emax fit; for EC anesthesia score 3: venous plasma concentration when anesthesia score is 3
[5] = system: dogs; assay: Loss of righting reflexes; assay type: in vivo, beagle dog
[6] = system: dogs; assay type: in vivo, beagle dog
[7] = system: adrenocortical responsiveness to ACTH1-24 stimulation; assay: Adrenocortical recovery after hypnotic infusion; settings: for Plasma cortisol concentrations compared to vehicle group over time: after 2-h infusion, ACTH1-24 stimulated; for Shared Hill coefficient of in vivo adrenocortical concentration-response curves: both data sets fit to a single Hill coefficient
[8] = system: dogs; assay: Pilot experiments of midazolam dosing in dogs; assay type: in vivo, beagle dog; settings: 0.1 - 0.2 mg/kg intravenous bolus per dose
[9] = Stability testing of frozen formulated drug; assay type: physicochemical; settings: 8 mg/ml in 20% sulfobutylether-β-cyclodextrin pH 7.4, stored frozen at -20°C
[10] = system: rats; settings: cited from earlier work
[11] = system: rats; settings: cited from earlier work; remark: listed apart in the source
[12] = metabolite after IV bolus of parent, n = 3 dogs
[13] = metabolite, bolus followed by 2-h infusion of parent, n = 4 dogs
[14] = CPMM vs etomidate 2-h infusion study, n = 4 dogs per group
[15] = IV bolus (CPMM 4 mg/kg, etomidate 2 mg/kg), n = 3 dogs
[16] = parent drug, IV bolus, n = 3 dogs, time zero to infinity
[17] = CPMM vs propofol 2-h infusion study, n = 4 dogs/group
[18] = parent drug, IV bolus, n = 3 dogs
[19] = bolus followed by 2-h infusion, dogs

Compound: CC(c1ccccc1)n1cncc1C(=O)O (centres unmarked) [Etomidate Metabolite]
- Plasma concentration in final blood samples 120 min after administration ([1]; after etomidate 2 mg/kg bolus, dogs): 708 ± 75 ng/mL
- AUC [1, 12]: 236,000 ± 18,400 min·ng ml^−1
- Cmax [1, 12]: 2,370 ± 347 ng·ml^−1
- t1/2 [1, 12]: 61.4 ± 9.13 min
- tmax [1, 12]: 18.3 ± 18.9 min
- Cmax [2, 13]: 1,680 ±253 ng/ml
- t1/2 [2, 13]: 69.3 ± 23.4 min

Compound: CCOC(=O)c1cncn1[C@H](C)c1ccccc1 [Etomidate, reference compound]
- Dogs with myoclonus during infusion [3, 14]: 2 dogs
- Persistence of myoclonus in the postinfusion period ([3]; dogs): up to approximately an hour
- Incidence of myoclonus during infusion [3]: 2/4
- γ (slope parameter) [4]: 1.7 0.9 – 2.4
- EC anesthesia score 1 ([4]; venous plasma concentration when anesthesia score is 1): 1,607 1,026 – 2,517 ng/ml
- EC anesthesia score 3 [4]: 5,952 4,392 – 8,066 ng/ml
- Duration of LoRR ([5]; 0.5 mg/kg IV bolus, n = 3 dogs): 2.7 ± 0.8 min
- Duration of LoRR ([5]; 1.9 mg/kg IV bolus, n = 3 dogs): 17 ± 5 min
- Relative hypnotic potency CPMM vs etomidate ([5]; dogs): approximately twice as potent as CPMM
- Bolus doses that induced LoRR in all dogs ([5]; dogs, IV bolus): 0.5 to 1.9 mg/kg
- Slope of duration of LoRR vs logarithm of dose ([5]; dogs, IV bolus): 24
- X-intercept of duration of LoRR vs logarithm of dose ([5]; dogs, IV bolus): 0.37 mg/kg
- Time after bolus administration of anesthetic recovery ([6]; CPMM 4 mg/kg or etomidate 2 mg/kg bolus, see fig. 3B): 9.0 to 13.8 min
- Plasma cortisol concentrations compared to vehicle group over time ([7]; dogs): remained significantly lower than those in the vehicle group throughout the duration of the study (>300 min)
- Shared Hill coefficient of in vivo adrenocortical concentration-response curves [7]: -2.0
- Co [1, 15]: 10,700 ± 1,440 ng/ml
- Decrease of plasma concentration from initial to final blood sample (2 h) ([1]; IV bolus, dogs): 1.5 orders of magnitude
- Plasma concentration at 10 min as percentage of initial blood sample ([1]; IV bolus, dogs): 25%
- Plasma concentration range during anesthetic recovery ([1]; dogs): approximately 1,000 ng/ml
- concentration at 30 s ([1]; beagle, dog, in vivo, 2 mg/kg): 9080 ng/mL
- concentration at 10 min ([1]; beagle, dog, in vivo, 2 mg/kg): 2230 ng/mL
- AUC ([1]; beagle, dog, in vivo, iv, 2 mg/kg, AUC, parent drug, IV bolus, n = 3 dogs, time zero to infinity): 1930 ng·h/mL
- AUC [1, 16]: 139,000 ± 26,300 min-ng ml^−1
- Cmax ([2]; beagle, dog, in vivo): 2050 ng/mL

Compound: Cc1ncc2n1-c1ccc(Cl)cc1C(c1ccccc1F)=NC2 [midazolam]
- Effect on myoclonus ([3]; 0.1 - 0.2 mg/kg intravenous bolus per dose during 2-h hypnotic infusions, dogs): effectively reduced the myoclonus
- Sedative effect [8]: no discernable sedative effect

Compound: CC(C)c1cccc(C(C)C)c1O [propofol]
- Dogs with myoclonus during infusion [3, 17]: two dogs had myoclonus

Compound: cyclopropyl-methoxycarbonyl metomidate [CPMM]
- Dogs with myoclonus during infusion [3, 14]: 4 dogs
- Dogs with myoclonus during infusion [3, 17]: all four dogs had myoclonus
- Persistence of myoclonus in the postinfusion period ([3]; dogs): ceased within several minutes
- Incidence of myoclonus during infusion [3]: 8/8
- γ (slope parameter) [4]: 1.3 0.7 – 1.9
- EC anesthesia score 3 [4]: 2,798 1,840 – 4,256 ng/ml
- Stability of formulated drug [9]: no significant degradation over time
- Duration of LoRR ([5]; 1 mg/kg IV bolus, n = 3 dogs): 1.8 ± 0.6 min
- Duration of LoRR ([5]; 12 mg/kg IV bolus, n = 4 dogs): 10.9 ± 0.7 min
- Relative hypnotic potency CPMM vs etomidate ([5]; dogs): half as potent; also recorded: approximately half that of etomidate
- Bolus doses that induced LoRR in all dogs ([5]; dogs, IV bolus): ≥ 1 mg/kg
- Slope of duration of LoRR vs logarithm of dose ([5]; dogs, IV bolus): 9.9
- X-intercept of duration of LoRR vs logarithm of dose ([5]; dogs, IV bolus): 0.88 mg/kg
- LoRR at lower doses ([5]; dogs, IV bolus 0.25 mg/kg or 0.5 mg/kg): failed to induce LoRR in any dog
- Time to induction of LoRR ([5]; dogs, IV bolus at doses ≥1 mg/kg): < 15 s
- ED50 for loss of righting reflexes ([5]; dogs, IV bolus, approximate value from Hill fit): ~ 0.8 mg/kg
- Hypnotic recovery time following 2-h continuous infusion [10]: 4.2 min
- Time to recover from anesthesia score 3 to score 0 ([6]; bolus followed by 2-h infusion): 8 ± 3 min
- Time to recover from anesthesia score 3 to score 2 ([6]; bolus followed by 2-h infusion): 4.4 ± 1.3 min
- Dependence of hypnotic recovery times on infusion duration ([6]; bolus vs bolus plus 2-h infusion): independent of infusion duration
- Recovery times from anesthesia score 3 to all lower scores compared to etomidate ([6]; single bolus CPMM 4 mg/kg vs etomidate 2 mg/kg): significantly shorter
- Time to recover from anesthesia score 3 to score 0 ([6]; single bolus only (4 mg/kg)): 11 ± 3 min
- Time to recover from anesthesia score 3 to score 1 ([6]; single bolus only (4 mg/kg)): 5.5 ± 0.7 min
- Time to recover from anesthesia score 3 to score 2 ([6]; single bolus only (4 mg/kg)): 4.3 ± 1.2 min
- Adrenal response to the second ACTH challenge compared to vehicle control ([7]; 180 min postinfusion, n = 4 dogs/group): normal adrenal response
- Plasma cortisol concentrations compared to vehicle group over time ([7]; dogs): not significantly different from controls for all time points longer than 120 min after infusion termination
- Half-time of adrenocortical recovery (normalized plasma cortisol) ([7]; after bolus plus 2-h infusion, n = 4 dogs): 215 min
- Shared Hill coefficient of in vivo adrenocortical concentration-response curves [7]: -2.0
- ACTH-stimulated plasma cortisol concentration, fold higher vs etomidate group ([7]; equivalent postinfusion time points after 2-h infusion, dogs): 4- to 27 fold
- In vivo IC50 for suppression of adrenocortical responsiveness to ACTH1-24 ([7]; plasma hypnotic concentration, dogs, Hill fit, estimated): 0.027 µg/mL
- Plasma concentration in initial blood sample ([1]; 30 s after IV bolus (CPMM 4 mg/kg, etomidate 2 mg/kg), n = 3 dogs): 4,130 ± 640 ng/ml
- Plasma concentration 10 min after administration [1, 15]: 330 ± 41 ng/mL
- Co [1, 15]: 5,180 ± 1,120 ng/ml
- Decrease of plasma concentration from initial to final blood sample (2 h) ([1]; IV bolus, dogs): decreased by four orders of magnitude
- Plasma concentration at 10 min as percentage of initial blood sample ([1]; IV bolus, dogs): 8%
- Plasma concentration range during anesthetic recovery ([1]; dogs): approximately 500 ng/ml
- Normalized plasma concentration as percentage of that of etomidate ([1]; one hour after hypnotic bolus, dogs): 7%
- CL [1, 18]: 211 ± 26 mL/min/kg
- Vss [1, 18]: 1,880 ± 569 ml·kg^−1
- t1/2 ([1]; parent drug, IV bolus, n = 3 dogs, apparent terminal half-life): 16.1 ± 2.99 min
- AUC [1, 16]: 19,200 ± 2,590 min-ng ml^−1
- Clearance relative to etomidate (fold higher) ([1]; single bolus, dogs): 14 X
- Terminal elimination half-life relative to etomidate ([1]; single bolus, dogs): 27%
- Vss relative to total body water volume in dogs (600 ml/kg) ([1]; single bolus, dogs): 3 X
- Normalized plasma concentration as percentage of that of etomidate ([1]; ten minutes after hypnotic bolus, dogs): 33%
- Decrease of plasma concentration from 30 to 60 min after the infusion ended [2, 19]: 22%
- Half-life of decline beyond 30 min after infusion [2, 19]: ~ 90 min
- Hypnotic ED50 [11]: ~0.69 mg/kg
- Slope of duration of hypnosis vs logarithm of dose [11]: 6.9
